Data: patent US8940730B2, “Methods and compositions of treating a Flaviviridae family viral infection” (The Board of Trustees of the Leland Stanford Junior …, priority 2007, dated 2015)
pEC50: −log10 of the molar value. Where two headings read alike, the source gives them in different places.

Columns and labels:
[1] = tested on: HCV genotype 2a infectious clone; test: HCV genotype 2a infectious clone assay (Renilla luciferase); assay type: cell-based; details: % replication activity of control with no test compound
Method: The assays in parts A and B were used to generate the genotype 1b inhibitory activity and related cell toxicity (viability) data supported herein. This assay has been used to generate the genotype 2a inhibitory activity data supported herein.
(§1) 1) Wash cells once with PBS, trypsinize. […] Mix twice by pipeting. […] Make a common stock from all tubes. […] 15) Incubate for 24 hr before treatment.
(§2) 3) Repeat daily for 2 more days.

Huh7.5 cells = details: human, 3 days
Method: as §1, §2
1) Alamar blue assay—a) Include medium for background subtraction (and also for seeing change in color easily). b) Aspirate medium. c) Make a stock of medium plus 10% Alamar blue. Total volume per well is 100 μl. d) Incubate for 2-2.5 hrs at 37° C. (or until there is a color change). c) Read plates at flex station.

HCV 1b RNA replicon = test: Luciferase assay for HCV genotype 1b replicon reporter cell lines
Huh7 cell line = test: MTT assay for HCV replicon reporter cell lines (cell toxicity); assay type: cell-based; details: Homo sapiens
[2] = Hepatitis C virus, Huh-7, 48 h, read-out: 1b EC50, 1b replicon, Huh7, 48 hours, top concentration 25 μM
[3] = Huh-7, cell toxicity, MTT, top concentration 25 μM, read-out: Cell Viability EC50
[4] = Huh-7, read-out: Cell Viability EC50

| SMILES | pEC50 (HCV 1b RNA replicon; [2]) | pEC50 (Huh7 cell line; [3]) | further results |
| --- | --- | --- | --- |
| Cc1ccc2c(c1)c(OCCCN1CCCC1)nn2Cc1ccccc1 [EBP178] | – | – | activity at 5 µM ([1]; Hepatitis C virus, read-out: 2a (% activity @ 5 μM), 5 μM): 25%; 2a cell viability (@ 5 μM) (Huh7.5 cells): 92% |
| C[C@H]1CCCN1CCCOc1nn(Cc2ccc(Cl)cc2)c2ccccc12 [EBP389] | – | – | 2a (% activity @ 5 μM) ([1]; 5 μM): 44% |
| OCC1CCN(CCCOc2nn(Cc3ccc(Cl)cc3)c3ccccc23)CC1 [EBP502] | 5.38 | < 4.60 | – |
| O[C@@H]1CN(CCCOc2nn(Cc3ccc(Cl)cc3)c3ccccc23)C[C@@H]1O [EBP514] | 5.29 | < 4.60 | – |
| Clc1ccc(Cn2nc(OCCCN3CC=CC3)c3ccccc32)cc1 [EBP519] | 4.74 | – | pEC50 (Huh7 cell line; [4]): < 4.60 |
| COC[C@H]1CCCN1CCCOc1nn(Cc2ccc(Cl)cc2)c2ccc(N(C)c3ccccc3)cc12 [EBP522] | 5.22 | < 4.60 | – |
| Clc1ccc(Cn2nc(OCCCN3CC4CC3CO4)c3ccccc32)cc1 (centres unmarked) [EBP528] | 5.10 | – | pEC50 (Huh7 cell line; [4]): 5.08 |
| COCC1CCN(CCCOc2nn(Cc3ccc(Cl)cc3)c3ccccc23)CC1 [EBP530] | 5.10 | < 4.60 | – |
| Nc1ccc2c(c1)c(OCCCN1CCCC1)nn2Cc1ccc(Cl)cc1 [EBP531] | 5.41 | < 4.60 | – |
| CS(=O)(=O)Nc1ccc2c(c1)c(OCCCN1CCCC1)nn2Cc1ccc(Cl)cc1 [EBP532] | 5.07 | < 4.60 | – |
| Clc1ccc(Cn2nc(OCCCCN3CCCC3)c3ccccc32)cc1 [EBP548] | 5.49 | < 4.60 | – |
| Clc1ccc(Cn2nc(OCC3CCCNC3)c3cc(Cl)ccc32)cc1 (centres unmarked) [EBP590] | 5.14 | 4.96 | – |
| O[C@@H]1CCN(CCCOc2nn(Cc3ccc(Cl)cc3)c3ccc(Cl)cc23)C1 [EBP644] | 5.12 | < 4.60 | – |
| C[C@@H]1CCCN1CCCOc1nn(Cc2ccc(Cl)cc2)c2ccc(Cl)cc12 [EBP645] | 5.10 | < 4.60 | – |
| C[C@H]1CCCN1CCCOc1nn(Cc2ccc(Cl)cc2)c2ccc(Cl)cc12 [EBP646] | 5.18 | < 4.60 | – |
| OC[C@@H]1CCCN1CCCOc1nn(Cc2ccc(Cl)cc2)c2ccc(Cl)cc12 [EBP647] | 5.12 | < 4.60 | – |
| Clc1ccc(Cn2nc(OCCCN3CCC[C@H]3CN3CCCC3)c3cc(Cl)ccc32)cc1 [EBP649] | 5.25 | < 4.60 | – |

| SMILES | pEC50 (HCV 1b RNA replicon; [2]) | pEC50 (Huh7 cell line; [3]) | further results |
| --- | --- | --- | --- |
| C[C@H]1CCCN1CCCOc1nn(Cc2ccc(Cl)cc2)c2ccc(Br)cc12 [EBP743] | 5.09 | – | – |
| C[C@H]1CCCN1CCCOc1nn(Cc2ccc(Cl)cc2)c2ccc(-c3cccnc3)cc12 [EBP846] | – | – | pEC50 (HCV 1b RNA replicon; read-out: 1b EC50, 1b replicon, Huh7, 48 hours, top concentration 25 μM): 5.09 |
| C[C@H]1CCCN1CCCOc1nn(Cc2ccc(Cl)cc2)c2ccc(-c3ccoc3)cc12 [EBP864] | 5.19 | < 4.60 | – |
| C[C@H]1CCCN1CCCOc1nn(Cc2ccc(Cl)cc2)c2ccc(N3CCCCC3)cc12 [EBP865] | 5.09 | – | – |
| C[C@H]1CCCN1CCCOc1nn(Cc2ccc(Cl)cc2)c2ccc(-c3cccnc3)cc12 [EBP897] | 5.14 | < 4.60 | – |
| COc1cncc(-c2ccc3c(c2)c(OCCCN2CCC[C@@H]2C)nn3Cc2ccc(Cl)cc2)c1 [EBP898] | 5.28 | < 4.60 | – |
| C[C@H]1CCCN1CCCOc1nn(Cc2ccc(Cl)cc2)c2ccc(-c3ccc(N4CCOCC4)nc3)cc12 [EBP899] | 5.66 | < 4.60 | – |
| CC(=O)Nc1ccc(-c2ccc3c(c2)c(OCCCN2CCC[C@@H]2C)nn3Cc2ccc(Cl)cc2)cn1 [EBP900] | 5.25 | < 4.60 | – |
| Cc1ccncc1-c1ccc2c(c1)c(OCCCN1CCC[C@@H]1C)nn2Cc1ccc(Cl)cc1 [EBP901] | 5.26 | < 4.60 | – |
| COc1ccc(-c2ccc3c(c2)c(OCCCN2CCC[C@@H]2C)nn3Cc2ccc(Cl)cc2)cn1 [EBP902] | 5.08 | < 4.60 | – |
| C[C@H]1CCCN1CCCOc1nn(Cc2ccc(Cl)cc2)c2ccc(-c3cnc(N)nc3)cc12 [EBP903] | 5.19 | < 4.60 | – |
| C[C@H]1CCCN1CCCOc1nn(Cc2ccc(Cl)cc2)c2ccc(-c3ccncc3)cc12 [EBP904] | 5.09 | < 4.60 | – |
| C[C@H]1CCCN1CCCOc1nn(Cc2ccc(Cl)cc2)c2ccc(NC3CCCCC3)cc12 [EBP917] | 5.10 | < 4.60 | – |
| C[C@H]1CCCN1CCCOc1nn(Cc2ccc(Cl)cc2)c2ccc(N3CCCCCC3)cc12 [EBP918] | 5.09 | 4.96 | – |
| C[C@H]1CCCN1CCCOc1nn(Cc2ccc(Cl)cc2)c2ccc(N(C)Cc3ccccc3)cc12 [EBP924] | 5.24 | < 4.60 | – |
| C[C@H]1CCCN1CCCOc1nn(Cc2ccc(Cl)cc2)c2ccc(N(C)c3ccccc3)cc12 [EBP925] | 5.24 | < 4.60 | – |
